Measured values from PMC4207771, “Identification and Characterization of Novel Renal Sensory Receptors” (PLoS ONE, 2014).
Where two headings read alike, the source gives them in different places.

What was measured:
Olfr99 = assay: dual-luciferase (cAMP/CREB reporter) ligand screen, Olfr99 in HEK293T cells; format: cell-based, mouse; design: key: ‘+’ or ‘–‘ in each column indicates if the olfactory receptor responded or had no effect to that specific chemical; -: ‘+’ or ‘–‘ in each column indicates if the olfactory receptor responded or had no effect to that specific chemical
Olfr545 = assay: dual-luciferase (cAMP/CREB reporter) ligand screen, Olfr545 in HEK293T cells; format: cell-based, mouse; design: key to Olfr545 response in dual-luciferase assay: ‘+’ or ‘–‘ in each column indicates if the olfactory receptor responded or had no effect to that specific chemical; -: ‘+’ or ‘–‘ in each column indicates if the olfactory receptor responded or had no effect to that specific chemical
Olfr693 = assay: dual-luciferase (cAMP/CREB reporter) ligand screen, Olfr693 in HEK293T cells; format: cell-based, mouse; design: key: ‘+’ or ‘–‘ in each column indicates if the olfactory receptor responded or had no effect to that specific chemical; -: ‘+’ or ‘–‘ in each column indicates if the olfactory receptor responded or had no effect to that specific chemical
Olfr691 = target: T1, Olfr691 (Mus musculus, UniProt Q8VGW5); assay: dual-luciferase (cAMP/CREB reporter) ligand screen, Olfr691 in HEK293T cells; format: cell-based; conditions: for Relative response (% of 4-pentenoate response) at 500 µM: HEK-293T, 4 h, 0.5 mM ligand, normalized to the response of Olfr691 to the strongest ligand; for EC50: Olfr691 co-expressed with RTP1S in HEK293T cells, 10 µM to 7.5 mM
T1 construct: Lucy (N); expressed in transfected cells; host or cells: HEK293T, co-transfected with RTP1S
T1 sequence (Q8VGW5 1-322): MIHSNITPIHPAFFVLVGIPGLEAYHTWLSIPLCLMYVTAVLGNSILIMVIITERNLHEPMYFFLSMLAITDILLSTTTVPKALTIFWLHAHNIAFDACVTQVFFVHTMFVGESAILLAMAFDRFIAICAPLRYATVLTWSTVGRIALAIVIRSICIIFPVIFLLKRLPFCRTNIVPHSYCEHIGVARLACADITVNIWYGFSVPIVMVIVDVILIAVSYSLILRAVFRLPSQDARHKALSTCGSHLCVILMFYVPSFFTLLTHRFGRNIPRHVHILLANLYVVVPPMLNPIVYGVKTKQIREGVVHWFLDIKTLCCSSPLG

Olfr31 = target: T2, Olfr31 (Mus musculus, UniProt Q3KPA7); assay: dual-luciferase (cAMP/CREB reporter) ligand screen, Olfr31 in HEK293T cells; format: cell-based
T2 construct: expressed in transfected cells; host or cells: HEK293T, co-transfected with RTP1S
T2 sequence (Q3KPA7 1-317): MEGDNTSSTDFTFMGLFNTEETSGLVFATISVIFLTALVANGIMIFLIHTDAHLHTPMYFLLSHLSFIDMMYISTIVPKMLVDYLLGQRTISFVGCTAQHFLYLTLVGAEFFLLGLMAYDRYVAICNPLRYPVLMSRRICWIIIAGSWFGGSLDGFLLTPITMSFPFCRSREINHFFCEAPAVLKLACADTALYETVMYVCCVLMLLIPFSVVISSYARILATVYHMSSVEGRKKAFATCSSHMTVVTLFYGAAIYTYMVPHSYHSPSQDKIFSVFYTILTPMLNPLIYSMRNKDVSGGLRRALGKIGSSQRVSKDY

[1] = chemicals tested individually, screened at 500uM (* also at 100uM)

O=C(O)C(=O)O [Oxalate]
Olfr99 response in dual-luciferase assay (Olfr99; [1]): - | Olfr545 response in dual-luciferase assay (Olfr545; [1]): - | Olfr693 response in dual-luciferase assay (Olfr693; [1]): - | Olfr691 response in dual-luciferase assay (Olfr691; [1]): - | Olfr31 response in dual-luciferase assay (Olfr31; [1]): -

CCC(C)S (stereo not shown) [1-methyl-1-propanethiol]
Olfr99 response in dual-luciferase assay (Olfr99; [1]): - | Olfr545 response in dual-luciferase assay (Olfr545; [1]): - | Olfr693 response in dual-luciferase assay (Olfr693; [1]): - | Olfr691 response in dual-luciferase assay (Olfr691; [1]): - | Olfr31 response in dual-luciferase assay (Olfr31; [1]): -

C[C@H](CCC(=O)O)[C@H]1CC[C@H]2[C@@H]3CC[C@@H]4C[C@H](O)CC[C@]4(C)[C@H]3C[C@H](O)[C@]12C [Deoxyxholic acid]
Olfr99 response in dual-luciferase assay (Olfr99; [1]): - | Olfr545 response in dual-luciferase assay (Olfr545; [1]): - | Olfr693 response in dual-luciferase assay (Olfr693; [1]): - | Olfr691 response in dual-luciferase assay (Olfr691; [1]): - | Olfr31 response in dual-luciferase assay (Olfr31; [1]): -

C=CCSCC=C [allyl sulfide]
Olfr99 response in dual-luciferase assay (Olfr99; [1]): - | Olfr545 response in dual-luciferase assay (Olfr545; [1]): - | Olfr693 response in dual-luciferase assay (Olfr693; [1]): - | Olfr691 response in dual-luciferase assay (Olfr691; [1]): - | Olfr31 response in dual-luciferase assay (Olfr31; [1]): -

O=C(O)CCCCCCCCC(=O)O [sebacic acid]
Olfr99 response in dual-luciferase assay (Olfr99; [1]): - | Olfr545 response in dual-luciferase assay (Olfr545; [1]): - | Olfr545 response (in words) (Olfr545; luciferase assay): did not induce a response | Olfr693 response in dual-luciferase assay (Olfr693; [1]): - | Olfr691 response in dual-luciferase assay (Olfr691; [1]): - | Olfr31 response in dual-luciferase assay (Olfr31; [1]): -

CC(C)C(=O)O [isobutyrate]
Olfr99 response in dual-luciferase assay (Olfr99; [1]): - | Olfr545 response in dual-luciferase assay (Olfr545; [1]): - | Olfr693 response in dual-luciferase assay (Olfr693; [1]): - | Relative response (% of 4-pentenoate response) at 500 µM (Olfr691): 97 ± 10.8% | EC50 (Olfr691): 1.13 mM | Olfr691 response in dual-luciferase assay (Olfr691; [1]): + | Olfr31 response in dual-luciferase assay (Olfr31; [1]): -

O=CO [formate]
Olfr691 response (in words) (Olfr691): not including

Myrtenal
Olfr99 response in dual-luciferase assay (Olfr99; [1]): - | Olfr545 response in dual-luciferase assay (Olfr545; [1]): - | Olfr693 response in dual-luciferase assay (Olfr693; [1]): - | Olfr691 response in dual-luciferase assay (Olfr691; [1]): - | Olfr31 response in dual-luciferase assay (Olfr31; [1]): -

CC12CCC(CC1=O)C2(C)C (stereo not shown) [Camphor]
Olfr99 response in dual-luciferase assay (Olfr99; [1]): - | Olfr545 response in dual-luciferase assay (Olfr545; [1]): - | Olfr693 response in dual-luciferase assay (Olfr693; [1]): - | Olfr691 response in dual-luciferase assay (Olfr691; [1]): - | Olfr31 response in dual-luciferase assay (Olfr31; [1]): -

C=CC(=O)CCCCC [1-Octen-3-one]
Olfr99 response in dual-luciferase assay (Olfr99; [1]): - | Olfr545 response in dual-luciferase assay (Olfr545; [1]): - | Olfr693 response in dual-luciferase assay (Olfr693; [1]): - | Olfr691 response in dual-luciferase assay (Olfr691; [1]): - | Olfr31 response in dual-luciferase assay (Olfr31; [1]): -

CC(=O)O [acetic acid]
Olfr99 response in dual-luciferase assay (Olfr99; [1]): - | Olfr545 response in dual-luciferase assay (Olfr545; [1]): - | Olfr693 response in dual-luciferase assay (Olfr693; [1]): - | Olfr691 response in dual-luciferase assay (Olfr691; [1]): - | Olfr691 response (in words) (Olfr691; luciferase assay, co-expressed with RTP1S): not including | Olfr31 response in dual-luciferase assay (Olfr31; [1]): -

CC(=O)c1c(C)c([N+](=O)[O-])c(C(C)(C)C)c([N+](=O)[O-])c1C [musk ketone]
Olfr99 response in dual-luciferase assay (Olfr99; [1]): - | Olfr545 response in dual-luciferase assay (Olfr545; [1]): - | Olfr693 response in dual-luciferase assay (Olfr693; [1]): - | Olfr691 response in dual-luciferase assay (Olfr691; [1]): - | Olfr31 response in dual-luciferase assay (Olfr31; [1]): -

O=C1CCCCCCCCCCCCCCCO1 [16-hexadecanolide]
Olfr99 response in dual-luciferase assay (Olfr99; [1]): - | Olfr545 response in dual-luciferase assay (Olfr545; [1]): - | Olfr693 response in dual-luciferase assay (Olfr693; [1]): - | Olfr691 response in dual-luciferase assay (Olfr691; [1]): - | Olfr31 response in dual-luciferase assay (Olfr31; [1]): -

SCCS [1,2-ethanedithiol]
Olfr99 response in dual-luciferase assay (Olfr99; [1]): - | Olfr545 response in dual-luciferase assay (Olfr545; [1]): - | Olfr693 response in dual-luciferase assay (Olfr693; [1]): - | Olfr691 response in dual-luciferase assay (Olfr691; [1]): - | Olfr31 response in dual-luciferase assay (Olfr31; [1]): -

O=c1[nH]c(=O)c2[nH]c(=O)[nH]c2[nH]1 [Uric acid]
Olfr99 response in dual-luciferase assay (Olfr99; [1]): - | Olfr545 response in dual-luciferase assay (Olfr545; [1]): - | Olfr693 response in dual-luciferase assay (Olfr693; [1]): - | Olfr691 response in dual-luciferase assay (Olfr691; [1]): - | Olfr31 response in dual-luciferase assay (Olfr31; [1]): -

C=C(C)C1CC=C(C)CC1 (single isomer, unassigned; (+)) [(+)-Limonene]
Olfr99 response in dual-luciferase assay (Olfr99; [1]): - | Olfr545 response in dual-luciferase assay (Olfr545; [1]): - | Olfr693 response in dual-luciferase assay (Olfr693; [1]): - | Olfr691 response in dual-luciferase assay (Olfr691; [1]): - | Olfr31 response in dual-luciferase assay (Olfr31; [1]): -

Cc1ccco1 [2-methylfuran]
Olfr99 response in dual-luciferase assay (Olfr99; [1]): - | Olfr545 response in dual-luciferase assay (Olfr545; [1]): - | Olfr693 response in dual-luciferase assay (Olfr693; [1]): - | Olfr691 response in dual-luciferase assay (Olfr691; [1]): - | Olfr31 response in dual-luciferase assay (Olfr31; [1]): -

C=CCCC(=O)O [4-pentenoic acid]
Olfr99 response in dual-luciferase assay (Olfr99; [1]): - | Olfr545 response in dual-luciferase assay (Olfr545; [1]): - | Olfr693 response in dual-luciferase assay (Olfr693; [1]): - | Relative response (% of 4-pentenoate response) at 500 µM (Olfr691): 100 ± 10.6% | EC50 (Olfr691): 0.901 mM | Olfr691 response in dual-luciferase assay (Olfr691; [1]): + | Olfr691 response (in words) (Olfr691; luciferase assay, co-expressed with RTP1S, listed as 4-Pentenoate): induced the strongest response | Olfr691 response (in words) (Olfr691; luciferase assay, co-expressed with RTP1S, listed as 4-pentenoate): induced the strongest cAMP responses at all doses | Olfr31 response in dual-luciferase assay (Olfr31; [1]): -

CC(O)C(C)O (stereo not shown) [2,3-butanediol]
Olfr99 response in dual-luciferase assay (Olfr99; [1]): - | Olfr545 response in dual-luciferase assay (Olfr545; [1]): - | Olfr693 response in dual-luciferase assay (Olfr693; [1]): - | Olfr691 response in dual-luciferase assay (Olfr691; [1]): - | Olfr31 response in dual-luciferase assay (Olfr31; [1]): -

C=CCc1ccc(O)c(OC)c1 [eugenol]
Olfr99 response in dual-luciferase assay (Olfr99; [1]): - | Olfr545 response in dual-luciferase assay (Olfr545; [1]): - | Olfr693 response in dual-luciferase assay (Olfr693; [1]): - | Olfr691 response in dual-luciferase assay (Olfr691; [1]): - | Olfr31 response in dual-luciferase assay (Olfr31; [1]): -

CC(C)CCO [3-methyl-1-butanol]
Olfr99 response in dual-luciferase assay (Olfr99; [1]): - | Olfr545 response in dual-luciferase assay (Olfr545; [1]): - | Olfr693 response in dual-luciferase assay (Olfr693; [1]): - | Olfr691 response in dual-luciferase assay (Olfr691; [1]): - | Olfr31 response in dual-luciferase assay (Olfr31; [1]): -

[Na+].[Na+].[S-2] [Sodium Sulfide]
Olfr99 response in dual-luciferase assay (Olfr99): - | Olfr545 response in dual-luciferase assay (Olfr545): - | Olfr693 response in dual-luciferase assay (Olfr693): - | Olfr691 response in dual-luciferase assay (Olfr691): - | Olfr31 response in dual-luciferase assay (Olfr31): -

C[C@]12CC[C@@H]3c4ccc(O)cc4CC[C@H]3[C@@H]1CC[C@@H]2O [estradiol, reference compound]
Olfr99 response in dual-luciferase assay (Olfr99; [1]): - | Olfr545 response in dual-luciferase assay (Olfr545; [1]): - | Olfr693 response in dual-luciferase assay (Olfr693; [1]): - | Olfr691 response in dual-luciferase assay (Olfr691; [1]): -

CC(C)CC(=O)O [isovaleric acid]
Olfr99 response in dual-luciferase assay (Olfr99; [1]): - | Olfr545 response in dual-luciferase assay (Olfr545; [1]): - | Olfr693 response in dual-luciferase assay (Olfr693; [1]): -
